Reference: the supplement of paper PMC10307832

Columns and labels:
Assay in all cases: relative viability (nuclei count vs DMSO), 5 days (fraction); higher = more cells survive
AZ505 + Olaparib = compound: C1CCC(CC1)N(CCNCCC2=C3C(=C(C=C2)O)NC(=O)CO3)C(=O)CCNCCC4=CC(=C(C=C4)Cl)Cl [AZ505] + O=C(c1cc(Cc2n[nH]c(=O)c3ccccc23)ccc1F)N1CCN(C(=O)C2CC2)CC1 [Olaparib] (partner 8 µM)
Method in brief: (§1)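 Lung cancer cell lines in 1536-well plates were dosed by pin tool the day after seeding, either with one drug alone or with a fixed anchor-drug dose plus five library-drug doses (not always all listed) in √10 steps. After 5 days, cells were fixed and their nuclei stained in one step (final 0.05% Triton X-100, 1% formaldehyde, 1 ug/ml Hoechst), then counted on 4× images. Relative viability is the nuclei count in treated wells divided by that in vehicle wells. Values are medians of duplicate plates.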

AZ505 + Alpelisib = compound: C1CCC(CC1)N(CCNCCC2=C3C(=C(C=C2)O)NC(=O)CO3)C(=O)CCNCCC4=CC(=C(C=C4)Cl)Cl [AZ505] + Cc1nc(NC(=O)N2CCC[C@H]2C(N)=O)sc1-c1ccnc(C(C)(C)C(F)(F)F)c1 [Alpelisib] (partner 2 µM)
Method in brief: as §1

Dactolisib + Linsitinib = compound: Cn1c(=O)n(-c2ccc(C(C)(C)C#N)cc2)c2c3cc(-c4cnc5ccccc5c4)ccc3ncc21 [Dactolisib] + C[C@]1(O)C[C@@H](c2nc(-c3ccc4ccc(-c5ccccc5)nc4c3)c3c(N)nccn32)C1 [Linsitinib] (partner 1 µM)
Method in brief: as §1

Dactolisib + Bortezomib = compound: Cn1c(=O)n(-c2ccc(C(C)(C)C#N)cc2)c2c3cc(-c4cnc5ccccc5c4)ccc3ncc21 [Dactolisib] + CC(C)C[C@H](NC(=O)[C@H](Cc1ccccc1)NC(=O)c1cnccn1)B(O)O [Bortezomib] (partner 0.002 µM)
Method in brief: as §1

Cell Line	relative viability (AZ505 + Olaparib; first compound 0.08 µM)	relative viability (AZ505 + Olaparib; first compound 0.253 µM)	relative viability (AZ505 + Olaparib; first compound 0.8 µM)	relative viability (AZ505 + Olaparib; first compound 2.53 µM)	relative viability (AZ505 + Olaparib; first compound 8 µM)	relative viability (AZ505 + Alpelisib; first compound 0.08 µM)	relative viability (AZ505 + Alpelisib; first compound 0.253 µM)	relative viability (AZ505 + Alpelisib; first compound 0.8 µM)	relative viability (AZ505 + Alpelisib; first compound 2.53 µM)	relative viability (AZ505 + Alpelisib; first compound 8 µM)	relative viability (Dactolisib + Linsitinib; first compound 0.002 µM)	relative viability (Dactolisib + Linsitinib; first compound 0.006325 µM)	relative viability (Dactolisib + Linsitinib; first compound 0.02 µM)	relative viability (Dactolisib + Linsitinib; first compound 0.06325 µM)	relative viability (Dactolisib + Linsitinib; first compound 0.2 µM)	relative viability (Dactolisib + Bortezomib; first compound 0.002 µM)	relative viability (Dactolisib + Bortezomib; first compound 0.006325 µM)	relative viability (Dactolisib + Bortezomib; first compound 0.02 µM)	relative viability (Dactolisib + Bortezomib; first compound 0.06325 µM)	relative viability (Dactolisib + Bortezomib; first compound 0.2 µM)
HCC-44	0.928	1.01	1.02	1	1.05	0.734	0.751	0.75	0.901	0.869	0.707	0.741	0.431	0.315	0.265	0.932	0.84	0.968	0.535	0.516
HCC-827	0.629	0.662	0.628	0.646	0.711	0.921	0.997	0.87	0.947	1.06	1.02	0.919	1.03	0.911	0.699	1.12	1.01	1.11	1.14	1.05
NCI-H2347	0.554	0.505	0.489	0.489	0.52	0.558	0.591	0.643	0.522	0.714	1.29	0.47	0.893	0.68	0.385	0.809	0.916	0.894	0.691	0.402
PC-14	0.302	0.255	0.248	0.324	0.241	0.81	0.964	0.925	0.906	0.961	1.04	1.02	0.945	0.644	0.407	0.904	0.779	0.905	0.559	0.416
NCI-H1651	0.182	0.19	0.179	0.185	0.186	0.94	1.03	0.977	0.89	0.939	1.03	0.743	0.714	0.321	0.293	1.05	0.952	0.884	0.886	0.67
HARA	0.451	–	0.734	0.631	0.761	0.704	0.641	0.582	0.512	0.494	1	0.884	0.842	0.573	0.211	1.12	1.08	1.13	1.1	0.491
NCI-H1650	0.723	0.803	0.735	0.727	0.853	–	–	–	–	–	–	–	–	–	–	0.224	0.213	0.212	0.208	0.228
NCI-H1395	0.427	–	0.456	0.489	0.392	1.1	1.3	0.935	1.11	1.16	0.91	0.844	0.998	0.653	0.834	–	–	–	–	–
SK-LU-1	0.268	0.364	0.349	0.314	0.326	0.499	0.846	0.537	0.69	0.741	1.26	0.988	0.728	0.494	0.397	–	1.05	1.21	1.16	0.457
LU99A	0.279	0.298	0.289	–	0.265	0.55	0.519	0.618	0.478	0.493	0.572	0.468	0.307	0.218	0.223	1.12	0.903	0.543	0.366	0.249
NCI-H1355	0.719	0.796	0.729	0.734	0.711	0.775	0.769	0.834	0.65	0.902	0.848	0.761	0.733	0.354	0.257	1.21	1.21	1.13	0.937	0.525
HCC-78	–	–	0.878	0.829	1.03	–	0.515	0.306	0.411	0.462	0.476	0.457	0.383	0.223	0.207	0.483	0.43	0.404	0.269	0.203
NCI-H1563	–	–	–	–	–	0.932	0.911	0.873	0.886	0.915	1.25	1.11	1.02	0.62	0.654	0.904	0.903	0.819	0.603	0.59
HCC-15	0.639	0.723	0.75	0.73	0.736	0.773	0.926	0.918	0.809	0.933	0.976	0.864	0.873	0.441	0.367	0.977	0.987	0.961	0.823	0.554
EKVX	–	0.895	0.764	0.874	0.916	0.896	1.04	0.896	0.899	1.01	0.896	0.908	0.962	0.682	0.327	1.09	0.997	1.02	0.941	0.396
NCI-H2087	0.515	0.536	0.552	0.629	0.611	0.863	1.03	1.01	1.14	0.997	1.02	0.955	0.919	0.555	0.429	1.04	0.784	0.791	0.548	0.382
LK-2	0.597	0.583	0.87	0.822	0.784	0.968	0.923	1.29	1.13	1.16	0.389	0.508	0.507	0.169	0.251	–	–	–	–	–
NCI-H1437	0.623	0.623	0.632	0.595	0.637	0.852	0.93	0.876	0.932	1	1.05	0.985	0.981	0.596	0.315	0.567	0.564	0.518	0.377	0.278
COR-L23	0.282	0.344	0.32	0.374	0.38	0.532	0.646	0.463	0.624	0.598	1.01	0.8	0.448	0.17	0.139	1.21	0.803	0.765	0.327	0.149

Cell Line	relative viability (AZ505 + Olaparib; first compound 0.08 µM)	relative viability (AZ505 + Olaparib; first compound 0.253 µM)	relative viability (AZ505 + Olaparib; first compound 0.8 µM)	relative viability (AZ505 + Olaparib; first compound 2.53 µM)	relative viability (AZ505 + Olaparib; first compound 8 µM)	relative viability (AZ505 + Alpelisib; first compound 0.08 µM)	relative viability (AZ505 + Alpelisib; first compound 0.253 µM)	relative viability (AZ505 + Alpelisib; first compound 0.8 µM)	relative viability (AZ505 + Alpelisib; first compound 2.53 µM)	relative viability (AZ505 + Alpelisib; first compound 8 µM)	relative viability (Dactolisib + Linsitinib; first compound 0.002 µM)	relative viability (Dactolisib + Linsitinib; first compound 0.006325 µM)	relative viability (Dactolisib + Linsitinib; first compound 0.02 µM)	relative viability (Dactolisib + Linsitinib; first compound 0.06325 µM)	relative viability (Dactolisib + Linsitinib; first compound 0.2 µM)	relative viability (Dactolisib + Bortezomib; first compound 0.002 µM)	relative viability (Dactolisib + Bortezomib; first compound 0.006325 µM)	relative viability (Dactolisib + Bortezomib; first compound 0.02 µM)	relative viability (Dactolisib + Bortezomib; first compound 0.06325 µM)	relative viability (Dactolisib + Bortezomib; first compound 0.2 µM)
ABC-1	0.688	–	0.841	0.807	1.2	0.881	1.01	1.1	1.26	1.02	0.948	0.614	0.694	0.363	0.326	0.345	0.296	0.303	0.312	0.247
NCI-H522	0.607	0.645	0.698	0.698	0.685	–	–	–	–	–	–	–	–	–	–	–	–	–	–	–
NCI-H838	0.688	0.765	0.744	0.787	0.776	0.988	0.966	0.943	0.928	1.01	0.915	0.444	0.652	0.226	0.22	0.852	0.725	0.434	0.22	0.242
SW 900	0.853	0.775	0.86	0.932	0.987	–	–	–	–	–	–	–	–	–	–	–	–	–	–	–
A549	0.315	0.362	0.358	0.415	0.296	0.796	0.666	0.872	0.79	0.795	0.578	0.58	0.465	0.194	0.125	–	–	–	–	–
A-427	0.765	0.704	0.724	0.721	0.732	1.08	1.11	1.04	1.01	1.08	1.16	1.12	1.14	0.748	0.609	0.947	0.959	0.966	0.61	0.581
NCI-H1792	0.432	0.447	0.404	0.517	0.321	0.719	0.769	0.66	0.701	0.642	0.57	0.483	0.382	0.112	0.0865	0.872	0.948	0.936	0.598	0.313
LCLC-97TM1	0.326	0.471	0.369	–	0.595	0.327	0.333	0.26	0.247	0.363	0.157	0.186	0.208	0.157	0.132	0.766	0.489	0.528	0.525	0.128
NCI-H1703	0.319	0.502	0.438	0.411	0.656	0.292	0.372	0.414	0.341	0.369	–	0.637	0.891	0.417	0.468	0.321	0.272	0.159	0.199	0.213
LCLC-103H	0.677	0.729	0.729	0.734	0.717	0.853	0.818	0.977	0.848	0.957	1.06	1.07	0.934	0.661	0.531	1.03	1.14	0.964	0.743	0.71
PC-3 [JPC-3]	0.918	–	0.944	1.01	1.15	0.914	0.961	0.941	0.919	0.979	0.996	0.984	1.03	0.816	0.639	0.847	0.842	0.802	0.902	0.869
ChaGo-K-1	0.404	0.439	0.431	0.402	0.469	–	–	–	–	–	–	–	–	–	–	0.977	1.07	0.861	1.04	0.755
NCI-H358	0.569	0.761	0.584	0.604	0.59	0.699	0.741	0.859	0.729	0.795	0.848	0.641	0.549	0.293	0.211	–	–	–	–	–
NCI-H1944	0.39	0.411	0.497	0.413	0.423	0.845	0.858	0.839	0.806	0.881	1.36	1.17	1.06	0.524	0.428	–	–	–	–	–
NCI-H1648	–	0.794	0.795	0.754	1.38	–	–	–	–	–	–	–	–	–	–	–	–	–	–	–
NCI-H2342	0.428	0.463	0.491	0.485	0.488	–	–	–	–	–	–	–	–	–	–	–	–	–	–	–
SK-MES-1	0.682	0.694	0.662	0.603	0.719	0.881	0.954	0.922	0.873	0.964	1.1	1.12	0.999	0.953	0.467	–	–	–	–	–
NCI-H2170	0.544	0.601	0.614	0.58	0.594	0.804	0.914	0.719	0.846	0.918	–	–	–	–	–	–	–	–	–	–
NCI-H1793	0.696	0.885	0.769	0.772	0.972	0.734	0.804	0.827	0.844	0.881	0.813	0.559	0.321	0.183	0.158	–	–	–	–	–
